In patent US20200239530A1, “COMPOUNDS AND METHODS OF MODULATING PROTEIN DEGRADATION” (Vividion Therapeutics, Inc., priority 2017, published 2020):
Where two headings read alike, the source gives them in different places. Each block holds one compound with its values, some of them ahead of it.

Key:
Type in all cases: binding
[1] = molecular target: T1, Q9H1A4 (Homo sapiens, UniProt Q9H1A4); assay: Competitive cysteine profiling, probe competition (Table 2B)
T1 construct: Cells were resuspended in cold PBS on ice and sonicated with a probe sonicator to achieve lysis; endogenous in cells
T1 sequence (Q9H1A4 whole entry): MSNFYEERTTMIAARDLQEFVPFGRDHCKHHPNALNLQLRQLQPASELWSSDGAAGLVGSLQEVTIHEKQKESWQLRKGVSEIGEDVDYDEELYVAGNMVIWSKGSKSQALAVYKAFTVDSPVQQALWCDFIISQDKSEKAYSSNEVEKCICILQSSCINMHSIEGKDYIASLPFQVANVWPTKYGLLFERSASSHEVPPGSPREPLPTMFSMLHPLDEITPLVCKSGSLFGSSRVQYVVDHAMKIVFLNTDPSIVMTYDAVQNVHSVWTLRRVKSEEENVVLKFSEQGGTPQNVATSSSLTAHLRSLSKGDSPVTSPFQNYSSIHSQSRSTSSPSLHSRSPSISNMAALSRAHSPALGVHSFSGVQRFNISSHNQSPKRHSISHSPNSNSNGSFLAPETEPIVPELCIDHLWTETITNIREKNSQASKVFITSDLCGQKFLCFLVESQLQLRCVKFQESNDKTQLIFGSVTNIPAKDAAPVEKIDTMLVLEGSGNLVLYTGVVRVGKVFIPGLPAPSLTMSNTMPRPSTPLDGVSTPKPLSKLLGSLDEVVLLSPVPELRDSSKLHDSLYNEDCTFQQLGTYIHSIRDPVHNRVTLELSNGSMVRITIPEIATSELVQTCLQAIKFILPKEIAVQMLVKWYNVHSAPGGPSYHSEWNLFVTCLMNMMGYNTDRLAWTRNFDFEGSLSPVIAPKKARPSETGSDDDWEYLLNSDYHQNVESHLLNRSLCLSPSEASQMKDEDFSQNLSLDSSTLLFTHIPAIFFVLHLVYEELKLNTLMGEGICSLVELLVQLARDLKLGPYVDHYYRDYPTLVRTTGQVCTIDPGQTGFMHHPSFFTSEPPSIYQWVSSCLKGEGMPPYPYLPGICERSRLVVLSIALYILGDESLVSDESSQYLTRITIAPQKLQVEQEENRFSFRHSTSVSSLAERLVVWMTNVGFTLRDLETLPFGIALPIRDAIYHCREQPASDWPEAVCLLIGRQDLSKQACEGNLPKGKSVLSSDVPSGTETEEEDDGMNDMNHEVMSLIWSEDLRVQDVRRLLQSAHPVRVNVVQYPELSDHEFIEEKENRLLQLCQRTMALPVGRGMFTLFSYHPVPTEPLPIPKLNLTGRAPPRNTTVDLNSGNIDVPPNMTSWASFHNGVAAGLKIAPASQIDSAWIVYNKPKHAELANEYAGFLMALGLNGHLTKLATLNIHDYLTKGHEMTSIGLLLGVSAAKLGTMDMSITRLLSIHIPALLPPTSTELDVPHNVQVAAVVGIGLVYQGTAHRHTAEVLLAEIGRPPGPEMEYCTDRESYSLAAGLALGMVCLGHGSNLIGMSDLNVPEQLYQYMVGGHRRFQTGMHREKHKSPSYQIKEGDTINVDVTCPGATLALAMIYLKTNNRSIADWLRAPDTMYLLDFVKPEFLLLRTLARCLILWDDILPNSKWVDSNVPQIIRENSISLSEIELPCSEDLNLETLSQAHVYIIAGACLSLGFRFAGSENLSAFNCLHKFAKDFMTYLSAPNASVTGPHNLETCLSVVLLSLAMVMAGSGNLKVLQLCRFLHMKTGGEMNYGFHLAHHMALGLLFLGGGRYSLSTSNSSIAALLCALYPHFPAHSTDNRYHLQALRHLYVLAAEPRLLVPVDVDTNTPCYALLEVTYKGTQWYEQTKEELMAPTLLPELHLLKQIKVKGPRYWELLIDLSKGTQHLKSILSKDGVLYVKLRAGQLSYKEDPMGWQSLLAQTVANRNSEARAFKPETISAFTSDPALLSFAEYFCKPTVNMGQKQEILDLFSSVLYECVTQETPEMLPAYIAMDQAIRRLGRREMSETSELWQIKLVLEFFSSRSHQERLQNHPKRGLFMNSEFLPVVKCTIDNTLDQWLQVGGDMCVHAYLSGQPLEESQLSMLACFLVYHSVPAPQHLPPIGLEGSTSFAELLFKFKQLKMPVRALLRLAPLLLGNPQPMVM
Source text: (§1) The following 96-well sample prep protocol was used for sample preparation.

[2] = molecular target: T2, Q9Y297 (Homo sapiens, UniProt Q9Y297); assay: as above
T2 construct: 200 μL of lysate containing 5 mg/ml proteome was treated with 2 μL of 100× compound stock; endogenous in cells
T2 sequence (Q9Y297 whole entry): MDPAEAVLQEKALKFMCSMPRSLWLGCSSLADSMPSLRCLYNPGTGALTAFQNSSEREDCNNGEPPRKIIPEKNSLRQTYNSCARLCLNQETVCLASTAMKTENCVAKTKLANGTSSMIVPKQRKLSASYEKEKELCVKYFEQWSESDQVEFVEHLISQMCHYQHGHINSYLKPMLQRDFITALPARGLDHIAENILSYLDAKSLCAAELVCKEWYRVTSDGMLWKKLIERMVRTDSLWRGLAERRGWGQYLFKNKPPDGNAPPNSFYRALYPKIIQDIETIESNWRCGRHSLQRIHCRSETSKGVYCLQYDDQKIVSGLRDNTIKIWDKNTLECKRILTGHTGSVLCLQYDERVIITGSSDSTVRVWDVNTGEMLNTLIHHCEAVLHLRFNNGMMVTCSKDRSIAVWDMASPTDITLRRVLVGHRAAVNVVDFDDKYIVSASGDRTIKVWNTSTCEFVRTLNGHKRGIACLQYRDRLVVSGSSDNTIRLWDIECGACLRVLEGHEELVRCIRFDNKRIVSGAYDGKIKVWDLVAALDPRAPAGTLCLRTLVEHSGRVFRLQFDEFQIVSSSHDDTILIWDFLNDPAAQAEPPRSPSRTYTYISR
Source text: as §1

[3] = molecular target: T3, cysteine residue illustrated in Table 1A or Table 2A (Homo sapiens, UniProt Q8N9I9); assay: Competitive cysteine profiling of cell lysate with desthiobiotin iodoacetamide probe (96-well sample prep); conditions: UniProt Q8N9I9; 100 uM
T3 construct: Cells were resuspended in cold PBS on ice and sonicated with a probe sonicator to achieve lysis; endogenous in cells
T3 sequence (Q8N9I9 whole entry): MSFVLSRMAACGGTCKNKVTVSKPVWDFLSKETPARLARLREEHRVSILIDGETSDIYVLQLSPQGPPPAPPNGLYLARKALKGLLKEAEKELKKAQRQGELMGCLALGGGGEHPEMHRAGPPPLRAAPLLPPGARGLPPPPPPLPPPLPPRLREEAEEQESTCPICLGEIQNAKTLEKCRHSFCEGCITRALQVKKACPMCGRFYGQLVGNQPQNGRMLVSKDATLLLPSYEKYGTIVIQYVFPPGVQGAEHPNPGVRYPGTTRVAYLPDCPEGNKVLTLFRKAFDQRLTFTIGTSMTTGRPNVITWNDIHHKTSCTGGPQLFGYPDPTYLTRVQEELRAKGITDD
Summary of the method: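 Sonicated cell lysate (5 mg/ml proteome) was preincubated with compound 1 h at 25 °C, then labelled with desthiobiotin iodoacetamide probe 1 h at 25 °C. After reduction, alkylation and trypsin digestion, probe-labelled peptides were streptavidin-enriched and eluted for mass-spectrometric analysis.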

[4] = molecular target: T4, Q8WXK3 (Homo sapiens, UniProt Q8WXK3); assay: Competitive cysteine profiling, probe competition (Table 2B)
T4 construct: 200 μL of lysate containing 5 mg/ml proteome was treated with 2 μL of 100× compound stock; endogenous in cells
T4 sequence (Q8WXK3 whole entry): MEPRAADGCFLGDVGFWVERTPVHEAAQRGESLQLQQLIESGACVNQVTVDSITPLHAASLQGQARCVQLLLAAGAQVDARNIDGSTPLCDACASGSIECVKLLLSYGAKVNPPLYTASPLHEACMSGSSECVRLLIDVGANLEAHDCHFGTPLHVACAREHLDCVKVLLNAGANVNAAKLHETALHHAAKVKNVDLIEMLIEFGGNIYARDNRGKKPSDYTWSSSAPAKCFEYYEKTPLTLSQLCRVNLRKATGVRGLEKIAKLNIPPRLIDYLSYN
Source text: as §1

[5] = molecular target: T5, Q9BX70 (Homo sapiens, UniProt Q9BX70); assay: as above
T5 construct: 200 μL of lysate containing 5 mg/ml proteome was treated with 2 μL of 100× compound stock; endogenous in cells
T5 sequence (Q9BX70 whole entry): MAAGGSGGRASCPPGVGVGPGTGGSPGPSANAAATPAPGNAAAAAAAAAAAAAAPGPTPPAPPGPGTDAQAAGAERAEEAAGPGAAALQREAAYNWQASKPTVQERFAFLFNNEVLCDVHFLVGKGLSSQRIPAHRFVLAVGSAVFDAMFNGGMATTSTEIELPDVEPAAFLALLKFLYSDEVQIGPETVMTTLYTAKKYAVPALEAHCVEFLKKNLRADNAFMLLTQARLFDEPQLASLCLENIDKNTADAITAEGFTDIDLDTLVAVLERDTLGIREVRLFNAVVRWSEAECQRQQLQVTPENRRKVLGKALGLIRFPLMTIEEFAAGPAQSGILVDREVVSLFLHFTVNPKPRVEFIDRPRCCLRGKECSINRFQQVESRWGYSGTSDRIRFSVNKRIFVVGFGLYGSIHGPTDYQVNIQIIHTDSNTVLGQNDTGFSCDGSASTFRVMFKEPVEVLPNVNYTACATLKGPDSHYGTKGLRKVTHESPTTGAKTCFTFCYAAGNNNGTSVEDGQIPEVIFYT
Source text: as §1

[6] = read-out: KB05_100 uM_percent_inhibition

- inhibition at 100 µM [1, 6]: 29%
- inhibition at 100 µM [2, 6]: 43%
Compound: C=CC(=O)N(c1ccccc1)c1ccc(Br)cc1 [KB05]

Compound: COc1ccc2c(c1)CCCN2C(=O)CCl [KB02]
- KB02_100 uM_percent_inhibition [3]: 8%
- inhibition at 500 µM ([4]; 500 uM, read-out: KB02_500 uM_percent_inhibition): 44%
- inhibition at 100 µM ([5]; 100 uM, read-out: KB02_100 uM_percent_inhibition): 4%
- KB02_100 uM_percent_inhibition ([1]; 100 uM): 21%
- inhibition at 100 µM ([1]; read-out: KB02_100 uM_percent_inhibition): 24%

Compound: O=C(CCl)Nc1cc(C(F)(F)F)cc(C(F)(F)F)c1 [KBO3]
- KB03_100 uM_percent_inhibition [3]: 10%
- KB03_100 uM_percent_inhibition ([4]; 100 uM): 7%
- KB03_500 uM_percent_inhibition ([5]; 500 uM): 40%
- KB03_100 uM_percent_inhibition ([2]; 100 uM): 54%
